Assay results reported in PubChem BioAssay AID256 (DTP/NCI, 2004).
“And” between values parts separate entries of the source, which are not always exact repeats. Equal values may be shown once. Toxic doses and inconclusive results are not listed.

Tested on: CD2F1 mice, L1210 leukemia ip, survival T/C
Assay: NCI In Vivo Anticancer Drug Screen. Data for tumor model L1210 Leukemia (intraperitoneal) in CD2F1 (CDF1) mice
Conditions: higher = longer survival
In short: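 Tumor-bearing mice (transplanted tumor) were split into treated and vehicle control groups, and the measured endpoint of each treated group was divided by that of its vehicle controls.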

[1] = endpoint: mean survival time, dose: 100.0 mg/kg/injection, schedule: Q04DX002 (ip), vehicle: saline with Tween-80
[2] = endpoint: mean survival time, dose: 200.0 mg/kg/injection, schedule: Q04DX002 (ip), vehicle: saline with Tween-80
[3] = endpoint: mean survival time, dose: 400.0 mg/kg/injection, schedule: Q04DX002 (ip), vehicle: saline with Tween-80
[4] = endpoint: mean survival time, dose: 300.0 mg/kg/injection, schedule: Q01DX001 (ip), vehicle: saline
[5] = endpoint: mean survival time, dose: 50.0 mg/kg/injection, schedule: Q01DX009 (ip), vehicle: saline with Tween-80
[6] = endpoint: mean survival time, dose: 100.0 mg/kg/injection, schedule: Q01DX009 (ip), vehicle: saline with Tween-80
[7] = endpoint: mean survival time, dose: 200.0 mg/kg/injection, schedule: Q01DX009 (ip), vehicle: saline with Tween-80
[8] = endpoint: mean survival time, dose: 100.0 mg/kg/injection, schedule: Q04DX003 (ip), vehicle: saline with Tween-80
[9] = endpoint: mean survival time, dose: 400.0 mg/kg/injection, schedule: Q04DX003 (ip), vehicle: saline with Tween-80
[10] = endpoint: mean survival time, dose: 200.0 mg/kg/injection, schedule: Q04DX003 (ip), vehicle: saline with Tween-80
[11] = endpoint: mean survival time, dose: 25.0 mg/kg/injection, schedule: Q01DX009 (ip), vehicle: saline with Tween-80
[12] = endpoint: mean survival time, dose: 100.0 mg/kg/injection, schedule: Q01DX001 (ip), vehicle: saline with Tween-80

Br/C1=C/CCCCCC1
T/C (endpoint: mean survival time, dose: 37.5 mg/kg/injection, schedule: Q01DX009 (ip), vehicle: saline): 94 % of control | T/C (endpoint: mean survival time, dose: 75.0 mg/kg/injection, schedule: Q01DX009 (ip), vehicle: saline): 94 % of control | T/C (endpoint: mean survival time, dose: 150.0 mg/kg/injection, schedule: Q01DX009 (ip), vehicle: saline): 104 % of control

O=C1OC2CCC(Br)CC2C=C1C1CCC([N+](=O)[O-])CC1 (stereo unspecified)
T/C [1]: 108 % of control | T/C [2]: 100 % of control | T/C [3]: 89 % of control

O=C(N/N=C\C(O)C(O)C(O)C(O)CO)c1ccccc1 (stereo unspecified)
T/C (endpoint: mean survival time, dose: 75.0 mg/kg/injection, schedule: Q01DX001 (ip), vehicle: saline): 100 % of control | T/C (endpoint: mean survival time, dose: 150.0 mg/kg/injection, schedule: Q01DX001 (ip), vehicle: saline): 104 % of control | T/C [4]: 106 % of control

C#CC(C)(C)CC(=O)O
T/C (endpoint: mean survival time, dose: 100.0 mg/kg/injection, schedule: Q01DX009 (ip), vehicle: saline): 102 % of control | T/C (endpoint: mean survival time, dose: 200.0 mg/kg/injection, schedule: Q01DX009 (ip), vehicle: saline): 101 % of control | T/C (endpoint: mean survival time, dose: 400.0 mg/kg/injection, schedule: Q01DX009 (ip), vehicle: saline): 98 % of control

CC(C)c1ccc(P(c2ccc(C(C)C)cc2)c2ccc(C(C)C)cc2)cc1
T/C (endpoint: mean survival time, dose: 25.0 mg/kg/injection, schedule: Q04DX002 (ip), vehicle: saline with Tween-80): 103 % of control | T/C (endpoint: mean survival time, dose: 50.0 mg/kg/injection, schedule: Q04DX002 (ip), vehicle: saline with Tween-80): 88 % of control | T/C [1]: 88 % of control

O=c1c2ccccc2oc2ccccc12
T/C [5]: 95 % of control | T/C [6]: 100 % of control | T/C [7]: 93 % of control

CC(=O)OCC1OC([S-])C(OC(C)=O)C(OC(C)=O)C1OC(C)=O.CC[PH+](CC)CC.CC[PH+](CC)CC.[Au].[Au] (stereo unspecified)
T/C (endpoint: mean survival time, dose: 0.62 mg/kg/injection, schedule: Q01DX009 (ip), vehicle: Klucel (hydroxypropylcellulose) (HPC)): 100 % of control and 102 % of control | T/C (endpoint: mean survival time, dose: 1.25 mg/kg/injection, schedule: Q01DX009 (ip), vehicle: Klucel (hydroxypropylcellulose) (HPC)): 100 % of control and 104 % of control | T/C (endpoint: mean survival time, dose: 2.5 mg/kg/injection, schedule: Q01DX009 (ip), vehicle: Klucel (hydroxypropylcellulose) (HPC)): 96 % of control and 102 % of control | T/C (endpoint: mean survival time, dose: 5.0 mg/kg/injection, schedule: Q01DX009 (ip), vehicle: Klucel (hydroxypropylcellulose) (HPC)): 97 % of control and 98 % of control | T/C (endpoint: mean survival time, dose: 10.0 mg/kg/injection, schedule: Q01DX009 (ip), vehicle: Klucel (hydroxypropylcellulose) (HPC)): 94 % of control and 97 % of control

CC(C)C1CCC(C)C23CCC(=O)C2C13 (stereo unspecified)
T/C (endpoint: mean survival time, dose: 100.0 mg/kg/injection, schedule: Q01DX001 (ip), vehicle: acetone): 100 % of control | T/C (endpoint: mean survival time, dose: 200.0 mg/kg/injection, schedule: Q01DX001 (ip), vehicle: acetone): 95 % of control | T/C (endpoint: mean survival time, dose: 400.0 mg/kg/injection, schedule: Q01DX001 (ip), vehicle: acetone): 110 % of control

O=C1C=CC(=Nc2ccc(Cl)cc2)O1
T/C [8]: 101 % of control | T/C [9]: 97 % of control

CC(=O)[CH-]C(C)=O.O=[N+]([O-])O.[NH-]C1CCCCC1[NH-].[Pt+4] (stereo unspecified)
T/C (endpoint: mean survival time, dose: 1.25 mg/kg/injection, schedule: Q04DX003 (ip), vehicle: water): 95 % of control | T/C (endpoint: mean survival time, dose: 2.5 mg/kg/injection, schedule: Q04DX003 (ip), vehicle: water): 98 % of control | T/C (endpoint: mean survival time, dose: 5.0 mg/kg/injection, schedule: Q04DX003 (ip), vehicle: water): 98 % of control | T/C (endpoint: mean survival time, dose: 10.0 mg/kg/injection, schedule: Q04DX003 (ip), vehicle: water): 110 % of control

Cc1nc2c(c[n+]1C)CN1C=Nc3c(ncn3C3OC(CO)C(O)C3O)C1=N2 (stereo unspecified)
T/C (endpoint: median survival time, dose: 12.5 mg/kg/injection, schedule: Q01DX005 (ip), vehicle: saline): 98 % of control | T/C (endpoint: median survival time, dose: 25.0 mg/kg/injection, schedule: Q01DX005 (ip), vehicle: saline): 100 % of control | T/C (endpoint: median survival time, dose: 50.0 mg/kg/injection, schedule: Q01DX005 (ip), vehicle: saline): 100 % of control | T/C (endpoint: median survival time, dose: 100.0 mg/kg/injection, schedule: Q01DX005 (ip), vehicle: saline): 100 % of control | T/C (endpoint: median survival time, dose: 200.0 mg/kg/injection, schedule: Q01DX005 (ip), vehicle: saline): 100 % of control

COc1ccc(C(=O)C(O)c2ccccc2)cc1 (stereo unspecified)
T/C (endpoint: mean survival time, dose: 100.0 mg/kg/injection, schedule: Q04DX003 (ip), vehicle: other): 97 % of control | T/C (endpoint: mean survival time, dose: 200.0 mg/kg/injection, schedule: Q04DX003 (ip), vehicle: other): 92 % of control | T/C (endpoint: mean survival time, dose: 400.0 mg/kg/injection, schedule: Q04DX003 (ip), vehicle: other): 92 % of control

O=C(O)c1c(Cl)ccc(F)c1Cl
T/C [1]: 105 % of control | T/C [2]: 105 % of control | T/C [3]: 94 % of control

CC(=O)OC1C=CS(=O)(=O)C1 (stereo unspecified)
T/C [8]: 108 % of control | T/C [10]: 103 % of control | T/C [9]: 105 % of control

CC(=O)CC(=O)C(F)(F)F.CC(=O)CC(=O)C(F)(F)F.[Ni]
T/C (endpoint: median survival time, dose: 25.0 mg/kg/injection, schedule: Q04DX002 (ip), vehicle: saline with Tween-80): 100 % of control | T/C (endpoint: median survival time, dose: 50.0 mg/kg/injection, schedule: Q04DX002 (ip), vehicle: saline with Tween-80): 122 % of control

COc1ccc(-n2cnnn2)cc1
T/C [8]: 101 % of control | T/C [10]: 106 % of control | T/C [9]: 112 % of control

O=C1CCC/C1=C/c1ccco1
T/C [11]: 93 % of control | T/C [5]: 95 % of control | T/C [6]: 86 % of control and 90 % of control

CC(=O)Nc1cccc(NC(C)=O)n1
T/C [6]: 95 % of control | T/C [7]: 94 % of control | T/C (endpoint: mean survival time, dose: 400.0 mg/kg/injection, schedule: Q01DX009 (ip), vehicle: saline with Tween-80): 91 % of control

N#CCCOCC(COCCC#N)OCCC#N
T/C [11]: 97 % of control and 103 % of control | T/C [5]: 98 % of control and 103 % of control | T/C [6]: 97 % of control and 110 % of control | T/C [7]: 89 % of control and 103 % of control

Cc1cccc(NC2=NCCO2)c1
T/C [12]: 104 % of control | T/C (endpoint: mean survival time, dose: 200.0 mg/kg/injection, schedule: Q01DX001 (ip), vehicle: saline with Tween-80): 103 % of control

CC(C#N)(Nc1ccccc1)c1ccccn1 (stereo unspecified)
T/C [8]: 101 % of control | T/C [10]: 93 % of control | T/C [9]: 89 % of control

C=C(Cl)C(=NC(C)(C)C)Nc1ccccc1C
T/C (endpoint: median survival time, dose: 3.12 mg/kg/injection, schedule: Q01DX009 (ip), vehicle: Klucel (hydroxypropylcellulose) (HPC)): 101 % of control | T/C (endpoint: median survival time, dose: 6.25 mg/kg/injection, schedule: Q01DX009 (ip), vehicle: Klucel (hydroxypropylcellulose) (HPC)): 109 % of control | T/C (endpoint: median survival time, dose: 12.5 mg/kg/injection, schedule: Q01DX009 (ip), vehicle: Klucel (hydroxypropylcellulose) (HPC)): 118 % of control | T/C (endpoint: median survival time, dose: 25.0 mg/kg/injection, schedule: Q01DX009 (ip), vehicle: Klucel (hydroxypropylcellulose) (HPC)): 114 % of control | T/C (endpoint: median survival time, dose: 50.0 mg/kg/injection, schedule: Q01DX009 (ip), vehicle: Klucel (hydroxypropylcellulose) (HPC)): 114 % of control | T/C (endpoint: median survival time, dose: 50.0 mg/kg/injection, schedule: Q01DX009 (ip), vehicle: saline): 103 % of control | T/C (endpoint: median survival time, dose: 100.0 mg/kg/injection, schedule: Q01DX009 (ip), vehicle: saline): 108 % of control | T/C (endpoint: median survival time, dose: 200.0 mg/kg/injection, schedule: Q01DX009 (ip), vehicle: saline): 111 % of control

O=C(OC1CCCCC1c1ccccc1)c1ccc([N+](=O)[O-])cc1 (stereo unspecified)
T/C [8]: 90 % of control | T/C [10]: 98 % of control | T/C [9]: 90 % of control

O=P(Oc1ccc(OP(=O)(N2CC2)N2CC2)cc1)(N1CC1)N1CC1
T/C (endpoint: mean survival time, dose: 58.0 mg/kg/injection, schedule: Q01DX001 (ip), vehicle: saline): 119 % of control | T/C (endpoint: mean survival time, dose: 133.0 mg/kg/injection, schedule: Q01DX001 (ip), vehicle: saline): 152 % of control | T/C (endpoint: mean survival time, dose: 200.0 mg/kg/injection, schedule: Q01DX001 (ip), vehicle: saline): 179 % of control | T/C [4]: 89 % of control

CCOC(=O)C(Cc1ccccc1)C1=NC(C)(C)CC(C)O1 (stereo unspecified)
T/C (endpoint: mean survival time, dose: 100.0 mg/kg/injection, schedule: Q04DX003 (ip), vehicle: acetone): 102 % of control | T/C (endpoint: mean survival time, dose: 200.0 mg/kg/injection, schedule: Q04DX003 (ip), vehicle: acetone): 109 % of control | T/C (endpoint: mean survival time, dose: 400.0 mg/kg/injection, schedule: Q04DX003 (ip), vehicle: acetone): 97 % of control

CCCCn1cnc2c(SSc3ncnc4c3ncn4CCCC)ncnc21
T/C [8]: 116 % of control and 106 % of control | T/C [10]: 113 % of control | T/C (endpoint: mean survival time, dose: 264.0 mg/kg/injection, schedule: Q04DX003 (ip), vehicle: saline with Tween-80): 97 % of control | T/C (endpoint: mean survival time, dose: 300.0 mg/kg/injection, schedule: Q04DX003 (ip), vehicle: saline with Tween-80): 120 % of control | T/C [9]: 122 % of control and 111 % of control | T/C (endpoint: mean survival time, dose: 600.0 mg/kg/injection, schedule: Q04DX003 (ip), vehicle: saline with Tween-80): 97 % of control

CCCCCCCCCCCCOc1ccc(Sc2ccc(OCCCCCCCCCCCC)cc2C)c(C)c1
T/C [12]: 86 % of control
